Experimental data taken from article PMC3956977, “Crystal structure of E. coli arginyl-tRNA synthetase and ligand binding studies revealed key residues in arginine recognition” (Protein & Cell, 2014).
Where a chain is given by its changes, count along the chain named.

Key:
Experiment in all cases: isothermal titration calorimetry
Format in all cases: binding
Conditions in all cases: read-out: Ka (M^-1) (converted)
[1] = target: T1, eArgRS (E. coli arginyl-tRNA synthetase, ArgRS) (Escherichia coli, UniProt P11875, Y313A)
T1 construct: gene argS; full length, 577 residues; pET-28a-SUMO in E. coli BL21(DE3), N-terminal His-SUMO tag cleaved by Ulp1; mutants made in pET22b/ArgRS
T1 sequence (P11875 1-577 Y313A): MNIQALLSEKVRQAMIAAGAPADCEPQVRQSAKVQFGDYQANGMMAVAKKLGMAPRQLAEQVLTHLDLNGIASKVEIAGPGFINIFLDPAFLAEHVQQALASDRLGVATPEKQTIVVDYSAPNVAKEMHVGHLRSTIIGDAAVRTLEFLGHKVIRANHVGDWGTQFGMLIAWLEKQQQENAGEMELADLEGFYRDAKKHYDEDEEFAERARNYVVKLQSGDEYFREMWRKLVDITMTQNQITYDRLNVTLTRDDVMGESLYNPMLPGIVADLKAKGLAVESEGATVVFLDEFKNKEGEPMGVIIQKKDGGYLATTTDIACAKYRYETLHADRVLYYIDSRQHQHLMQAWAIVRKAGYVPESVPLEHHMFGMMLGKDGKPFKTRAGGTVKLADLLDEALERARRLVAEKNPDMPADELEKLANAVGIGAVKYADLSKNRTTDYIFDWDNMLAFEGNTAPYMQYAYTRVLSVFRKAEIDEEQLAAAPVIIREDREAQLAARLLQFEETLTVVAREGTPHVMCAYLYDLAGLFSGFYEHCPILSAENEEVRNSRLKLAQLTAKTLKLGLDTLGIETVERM
From the text: (§1) isothermal titration calorimetry on eArgRS (E. coli arginyl-tRNA synthetase, ArgRS)

[2] = target: T2, eArgRS (E. coli arginyl-tRNA synthetase, ArgRS) (Escherichia coli, UniProt P11875)
T2 construct: gene argS; full length, 577 residues; pET-28a-SUMO in E. coli BL21(DE3), N-terminal His-SUMO tag cleaved by Ulp1; mutants made in pET22b/ArgRS
T2 sequence (P11875 1-577): T1 sequence (P11875 1-577 Y313A) with A313Y
From the text: as §1

[3] = target: T3, eArgRS (E. coli arginyl-tRNA synthetase, ArgRS) (Escherichia coli, UniProt P11875, R324A)
T3 construct: gene argS; full length, 577 residues; pET-28a-SUMO in E. coli BL21(DE3), N-terminal His-SUMO tag cleaved by Ulp1; mutants made in pET22b/ArgRS
T3 sequence (P11875 1-577 R324A): T1 sequence (P11875 1-577 Y313A) with A313Y, R324A
From the text: as §1

How did the Kd [1] turn out when `N=C(N)NCCC[C@H](N)C(=O)O` [L-arginine] was run?
Its Kd is 80.6 µM.

And the Kd [2]?
The Kd was 46.5 µM.

And the Kd [3]?
The Kd was 191 µM.
